{
  "source": "patent US20100233456A1",
  "about": "“LIGHT-STABILIZED POLYPROPYLENE” (SUMITOMO CHEMICAL COMPANY, LIMITED, priority 2007, published 2010)",
  "key": {"[1]": {"experiment": "Rate of weight loss by TG/DTA", "format": "physicochemical", "conditions": "heated in nitrogen gas from 25° C. to 300° C. at 10° C./minute", "protocol": "Regarding the requirement (c), the rate of decrease in weight by heating under the above conditions is preferably less than 5%, and further preferably less than 3%, from a viewpoint of an emission amount of VOC and light stability. A rate of decrease in weight of the hindered amine light stabilizer (B) is measured using a thermo gravimetry differential thermal analyzer (hereinafter, referred to as TG/DTA). Specifically, the hindered amine light stabilizer (B) is heated from 25° C. to 300° C. at a rate of 10° C./minute in a nitrogen gas atmosphere, which gas is flowed at a constant rate of 100 mL/minute, thereby measuring the rate (percentage) of a weight loss to the original weight with a thermobalance."}, "[2]": {"experiment": "Acid dissociation constant (pKa) by titration method", "experimental": "The pKa value is an index showing an inherent nature of the compound having a 2,2,6,6-tetramethylpiperidyl group represented by the general formula (I), and is measured by a titration method known in the art, which is a measurement method of an acid dissociation constant based on a Brøsted's definition."}},
  "data": [
    {"molecule": "CC1(C)CC(OC(=O)CCCCCCCCC(=O)OC2CC(C)(C)NC(C)(C)C2)CC(C)(C)N1", "note": "[Example B-3, bis(2,2,6,6-tetramethyl-4-piperidyl) sebacate]", "values": [
      {"measurement": "Rate of weight loss by TG-DTA", "setting": "[1]", "result": 19.6, "unit": "%"}
    ]},
    {"molecule": "CC(C)(C)c1ccc(OC(=O)c2cc(C(C)(C)C)c(O)c(C(C)(C)C)c2)c(C(C)(C)C)c1", "note": "[Example B-6, 2,4-di-t-butylphenyl-3,5-di-t-butyl-4-hydroxybenzoate]", "values": [
      {"measurement": "Rate of weight loss by TG-DTA", "setting": "[1]", "result": 31.6, "unit": "%"}
    ]},
    {"molecule": "CCCCCCCCON1C(C)(C)CC(OC(=O)CCCCCCCCC(=O)OC2CC(C)(C)N(OCCCCCCCC)C(C)(C)C2)CC1(C)C", "note": "[Example B-4, bis(1-octyloxy-2,2,6,6-tetramethylpiperidin-4-yl) sebacate]", "values": [
      {"measurement": "Rate of weight loss by TG-DTA", "setting": "[1]", "result": 68.6, "unit": "%"}
    ]},
    {"molecule": "N,N-bis(3-aminopropyl)ethylenediamine. 2,4-bis[N-butyl-N-(1,2,2,6,6-pentamethyl-4-piperidyl)amino]-6-chloro-1,3,5-triazine condensate [Example B-5]", "values": [
      {"measurement": "pKa", "setting": "[2]", "result": 9.2},
      {"measurement": "Rate of weight loss by TG-DTA", "setting": "[1]", "result": 0.6, "unit": "%"}
    ]},
    {"molecule": "CN1C(C)(C)CC(OC(=O)CC(C(=O)OC2CC(C)(C)N(C)C(C)(C)C2)C(CC(=O)OC2CC(C)(C)N(C)C(C)(C)C2)C(=O)OC2CC(C)(C)N(C)C(C)(C)C2)CC1(C)C", "note": "(stereo not shown) [Example B-2, tetrakis(1,2,2,6,6-pentamethyl-4-piperidyl) 1,2,3,4-buteane tetracarboxylate]", "values": [
      {"measurement": "pKa", "setting": "[2]", "result": 8.9},
      {"measurement": "Rate of weight loss by TG-DTA", "setting": "[1]", "result": 5.8, "unit": "%"}
    ]}
  ]
}
